One compound from patent US6906175B2, “Production of adenine nucleotide translocator (ANT), novel ANT ligands and screening assays therefor” (priority 1998, dated 2005) can be followed below.

The structures appear in SMILES notation. “Also recorded” adds a separate entry of the source.

For test [1], the target named is T1, Sf9/huANT3 mitochondria (Homo sapiens, UniProt P12236).
T1 construct: expressed in transfected cells; host or cells: Spodoptera frugiperda Sf9 cells infected with recombinant baculovirus; isolated mitochondria
T1 sequence (P12236 1-298): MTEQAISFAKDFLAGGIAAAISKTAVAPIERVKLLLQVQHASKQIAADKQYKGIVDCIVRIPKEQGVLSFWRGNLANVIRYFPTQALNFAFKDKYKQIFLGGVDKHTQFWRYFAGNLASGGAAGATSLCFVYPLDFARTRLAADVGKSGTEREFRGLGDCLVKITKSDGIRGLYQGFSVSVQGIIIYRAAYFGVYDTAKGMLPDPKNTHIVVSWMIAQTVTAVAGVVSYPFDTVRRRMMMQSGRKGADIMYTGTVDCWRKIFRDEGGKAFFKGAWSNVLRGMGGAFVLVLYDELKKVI
In words: [125I]atractyloside competition binding to Sf9/huANT3 mitochondria. Particulars: 0.5 nM [125I]atractyloside. The method, then:
(§1) Sf9 cells expressing huANT3 were grown in spinner flasks. The cells were harvested by centrifugation at 2,000 g for 5 min. The cell pellet was resuspended in MSB and subjected to 3 freeze-thaw cycles. Cell membranes and debris were removed by centrifugation at 600 g for 5 min; mitochondria were collected by centrifuging the supernatant at 20,000 g for 15 min. The mitochondrial pellets were suspended in MSB, and used for binding assays as described above. Homologous competition of [^32P]ATP binding was performed using 25 μg mitochondrial protein per assay.
These findings are consistent with the presence of functional huANT3 in the mitochondrial preparations.
Atractyloside analogs (Example 6; Table 1; see also Examples 7-9) were used in pseudo-homologous competition binding assays using Sf9/huANT3 mitochondria. Mitochondria (see Example 12, 25 μg/tube) were incubated with 0.5 nM [^125I]atractyloside and varying concentrations of non-radiolabeled atractyloside or fluorescent atractyloside derivatives as described above (FIGS. 7-9).

Test [2] deals with T1, Sf9/huANT3 mitochondria. In words: Homologous competition of [32P]ATP binding to Sf9/huANT3 mitochondria. Particulars: FIG. 8. The method, then:
To estimate maximal binding and the extent of overexpression of the huANT3, 25 μg of membrane protein was incubated with varying amounts of [^32P]ATP (1-500 μM) in binding buffer (120 mM KCl, 10 mM Tris, 1 mM EDTA, pH 7.4) for 2 hr at room temperature. The membranes with bound ATP were sedimented by centrifugation at 5000 g for 5 min, and washed once with binding buffer. Membrane pellets were then mixed with 5 ml scintillation cocktail and counted.
as §1

Test [3] addresses T2, T. ni/huANT3 mitochondria (Homo sapiens, UniProt P12236).
T2 construct: expressed in transfected cells; host or cells: Trichoplusia ni cells infected with recombinant baculovirus (cells prepared by PharMingen); isolated mitochondria
T2 sequence (P12236 1-298): T1 sequence (P12236 1-298)
In words: 125I-compound 24 competition binding (Tube Assay), mitochondria from T. ni cells expressing huANT3. The method, then:
Atractyloside analogs (Example 6; Table 1; see also Examples 7-9) were also used in pseudo-homologous competition binding assays using T. ni/huANT3 mitochondria or bovine mitochondria. Mitochondria from noninfected T. ni cells, or T. ni cells infected with a baculovirus expressing huANT3 (see Example 3) were prepared as follows: […] cells were prepared by a subcontractor (PharMingen, San Diego, Calif.) as portions of about 250 mg of cells per tube. Each portion was suspended in 1 ml of MSB with protease inhibitors (leupeptin, final concentration 10 ug/ml; pepstatin, final concentration 10 ug/ml; aprotinin, final concentration, 2 ug/ml; phenylmethylsulfonyl fluoride, [PMSF], final concentration, 100 μM; all from Sigma Chemical Co., St. Louis, Mo.). The resuspended cell suspensions were frozen and thawed twice, then homogenized using a rotating teflon-coated probe and a close-fitting glass container (10 passes). The cellular homogenate was centrifuged (3,700 rpm, approximately 1,500×g) at 4° C. for 5 minutes; this supernatant from the first spin was saved. The pellet was washed with about 500 μl of MSB with protease inhibitors, centrifuged (3,800 rpm, approximately 1,600×g) at 4° C. for 5 minutes, and supernatant from this spin was combined with the supernatant from the first spin. […]
The mitochondrial preparations were divided into aliquots (typically, 50μl for T. ni mitochondria or 20 μl for bovine mitochondria) and then either used directly in assays or flash frozen and stored at −80° C. The total protein content in the mitochondrial preparations was determined using the enhanced protocol (30 minutes at 60° C.; see http://www.ruf.rice.edu/˜bioslabs/methods/protein/BCA.html) of the bicinchoninic acid (BCA) assay (available in kit form from Pierce, Rockford, Ill.). […]
Unbound ^125I-compound 24 was removed by aspiration. […] The resultant pellets were aspirated and the radioactivity (dpm) in each was determined by gamma counting.

For the next test, the target named is T3, His-tagged huANT3 (Homo sapiens, UniProt P12236).
T3 sequence (P12236 1-298): T1 sequence (P12236 1-298)
In words: 125I-compound 24 competition binding to recombinant His-tagged huANT3 immobilized on Ni beads. As to conditions: His-tagged huANT3 on Ni-agarose beads, 1 hour at 4° C.; FIG. 19. The arrangement: made in house; host or cells: baculovirus-infected Trichoplusia ni cells; mitochondria solubilized and captured on Ni-agarose beads (Qiagen). The method, then: Competitive binding assays were also performed using recombinant His-tagged huANT3 (see Example 3) immobilized on Ni beads (FIG. 19) instead of mitochondria. To prepare the bead-immobilized huANT3, mitochondria from T. ni cells infected with a baculovirus expressing huANT3 (see Example 3) were solubilized with 0.5% O-glucopyranoside in the presence of 0.5 nM ^125I-compound 24 Ni-agarose beads (Qiagen, Hilden, Germany), and various concentrations of ATR or BKA as unlabeled competitors. After 1 hour at 4° C., the beads were washed and radioactivity that remained associated with the beads was counted.

For `C=C1[C@@H]2CCC3[C@@](CC[C@@H]4[C@H](C(=O)O)C[C@@H](O[C@@H]5O[C@H](CO)[C@@H](OS(=O)(=O)[O-])[C@H](OS(=O)(=O)[O-])[C@H]5OC(=O)CC(C)C)C[C@@]34C)(C2)[C@@H]1O.[K+].[K+]` (some centres unmarked) [ATR, atractyloside], the “cpm [125I]Atractyloside bound in the presence of ATR derivative” value stood at 224 cpm on Sf9/huANT3 mitochondria [1] ([ATR Derivative] 1.0 nM); 146 cpm at Sf9/huANT3 mitochondria [1] ([ATR Derivative] 5.0 nM); 42 cpm on Sf9/huANT3 mitochondria [1] ([ATR Derivative] 10 nM); 26 cpm at Sf9/huANT3 mitochondria [1] ([ATR Derivative] 50 nM); 36 cpm on Sf9/huANT3 mitochondria [1] ([ATR Derivative] 1,000 nM); 45 cpm at Sf9/huANT3 mitochondria [1] ([ATR Derivative] 5,000 nM). At Sf9/huANT3 mitochondria [1] ([ATR Derivative] 10,000 nM), the “cpm [125I]Atractyloside bound in the presence of ATR derivative” value is listed as 0 cpm. For the same compound, the “displacement of ATP binding” value on Sf9/huANT3 mitochondria [2] was “displaced by low concentrations of atractyloside”. For the same compound, the “affinity relative to the low affinity ANT ligand ADP” value in test [3] (mitochondria from T. ni cells expressing huANT3, 1 μg protein/tube, FIG. 14) is “about 1,000 fold”. For the same compound, the “competitive inhibition of 125I-compound 24 binding (in words)” value in test [3] (mitochondria from T. ni cells expressing huANT3, FIGS. 12, 14, 15) is listed as “slightly higher affinity than compound 24; also recorded: increasingly inhibited by higher concentrations of ATR”; on His-tagged huANT3 it was “effectively compete with compound 24”.
